Measured values taken from patent US20080044493A1, “Agent For Ameliorating The Maximum Passage Time Through Digestive Tract, Agent For Ameliorating Passage Time Through Digestive Tract And Preventive For Colon Cancer” (priority 2004, published 2008).

Key:
5 subjects = conditions: liquid preparation 2.4 g per 100 ml, 70 ml (974 mg in terms of magnesium) a day; cited from earlier work
[1] = tested on: healthy subject (1 person) not suffering from constipation; test: Test Example 1: transit time through the digestive tract by radio-opaque markers, with fecal weight and defecation frequency; type: in vivo, human; conditions: for Maximum Transit Time through Digestive Tract (average) / Transit Time through Digestive Tract (average): Standard Deviation in parentheses
Text: The method proposed by Hinton et al. was invented to measure the time required from food ingestion to defecation, namely, transit time through the digestive tract. More specifically, a plurality of radio-opaque markers were taken with a meal, and the time required from food ingestion to defecation (ti) and the number of markers contained in the evacuated feces (xi) were inspected based on x-ray images of the collected feces, followed by calculation of transit time through the digestive tract using the following formula. Transit time through the digestive tract indicates an average time required for a plurality of radio-opaque markers taken simultaneously to be evacuated. [formula]
A test sample in a dose shown in Table 1, together with 15 markers, were administered per day with meals to a healthy subject (1 person) not suffering from constipation, and the markers in the feces of the subject were identified thereafter. Test samples were administered for 3 days, and during which the transit times through the digestive tract of 5 or 6 meals were measured. Transit time through the digestive tract calculated by the above formula after each meal and the time required for the last marker to be evacuated (maximum transit time through the digestive tract) were recorded. […] Statistical treatment was performed using t-tests. In addition to the marker identification, the fecal weight and defecation frequency were recorded, and daily average fecal weight and defecation frequency were calculated, and shown in Table 1.

feces = conditions: 3 g a day; statistically significant; cited from earlier work

[O]=[Mg] [activated magnesium oxide]
Cathartic drug effect (5 subjects): its cathartic drug effect was shown

OC[C@H]1O[C@@H](O[C@@H]2[C@@H](CO)OC(O)(CO)[C@H]2O)[C@H](O)[C@@H](O)[C@H]1O (mixture of isomers) [Lactulose]
Average Defecation Frequency ([1]; Dose/Day 1 g): 1.8 times/day | Average Fecal Weight ([1]; Dose/Day 1 g): 315 g/day | Maximum Transit Time through Digestive Tract (average) ([1]; Dose/Day 1 g): 34.4 (9.4) hour | Transit Time through Digestive Tract (average) ([1]; Dose/Day 1 g): 21.8 (3.1) hour | Azoreductase activity in feces (feces): lowered azoreductase activity | Nitroreductase activity in feces (feces): lowered nitroreductase activity | Number of the Bifidobacterium in feces (feces): increased number of the Bifidobacterium | Putrefactive metabolites in feces (feces): reduced putrefactive metabolites | β-glucuronidase activity in feces (feces): lowered β-glucuronidase activity

[O]=[Mg] [Magnesium Oxide]
Transit time and maximum transit time through the digestive tract (in words) ([1]; 0.17 to 1.5 g a day, in comparison with no administration (control)): shortened transit time and maximum transit time through the digestive tract were observed | Average fecal weight (in words) ([1]; 1.0 to 1.5 g intake a day): more than doubled | Loose stools ([1]; 1.0 to 1.5 g intake a day): caused loose stools having high a moisture content | Average Defecation Frequency ([1]; Dose/Day 0.17 g): 2.3 times/day | Average Fecal Weight ([1]; Dose/Day 0.17 g): 274 g/day | Maximum Transit Time through Digestive Tract (average) ([1]; Dose/Day 0.17 g): 38.1 (10.1) hour | Transit Time through Digestive Tract (average) ([1]; Dose/Day 0.17 g): 20.6 (4.1) hour | Average Defecation Frequency ([1]; Dose/Day 0.35 g): 2.0 times/day | Average Fecal Weight ([1]; Dose/Day 0.35 g): 204 g/day | Maximum Transit Time through Digestive Tract (average) ([1]; Dose/Day 0.35 g): 32.4 (7.6) hour | Transit Time through Digestive Tract (average) ([1]; Dose/Day 0.35 g): 17.5 (3.1) hour | Average Defecation Frequency ([1]; Dose/Day 0.50 g): 2.3 times/day | Average Fecal Weight ([1]; Dose/Day 0.50 g): 313 g/day | Maximum Transit Time through Digestive Tract (average) ([1]; Dose/Day 0.50 g): 35.6 (6.9) hour | Transit Time through Digestive Tract (average) ([1]; Dose/Day 0.50 g): 21.6 (6.8) hour | Average Defecation Frequency ([1]; Dose/Day 0.75 g): 2.3 times/day | Average Fecal Weight ([1]; Dose/Day 0.75 g): 235 g/day | Maximum Transit Time through Digestive Tract (average) ([1]; Dose/Day 0.75 g): 34.9 (7.2) hour | Transit Time through Digestive Tract (average) ([1]; Dose/Day 0.75 g): 21.0 (4.3) hour | Average Defecation Frequency ([1]; Dose/Day 1.0 g): 2.0 times/day | Average Fecal Weight ([1]; Dose/Day 1.0 g): 414 g/day | Maximum Transit Time through Digestive Tract (average) ([1]; Dose/Day 1.0 g): 37.1 (8.2) hour | Transit Time through Digestive Tract (average) ([1]; Dose/Day 1.0 g): 22.9 (2.8) hour | Average Defecation Frequency ([1]; Dose/Day 1.5 g): 2.3 times/day | Average Fecal Weight ([1]; Dose/Day 1.5 g): 426 g/day | Maximum Transit Time through Digestive Tract (average) ([1]; Dose/Day 1.5 g): 35.6 (6.4) hour | Transit Time through Digestive Tract (average) ([1]; Dose/Day 1.5 g): 19.5 (1.9) hour | Loose stools ([1]; up to 0.75 g intake a day): loose stools were not caused

OC[C@H]1O[C@H](OC[C@H]2O[C@H](O[C@]3(CO)O[C@H](CO)[C@@H](O)[C@@H]3O)[C@H](O)[C@@H](O)[C@@H]2O)[C@H](O)[C@@H](O)[C@H]1O [Raffinose]
Average Defecation Frequency ([1]; Dose/Day 2 g): 2.3 times/day | Average Fecal Weight ([1]; Dose/Day 2 g): 243 g/day | Maximum Transit Time through Digestive Tract (average) ([1]; Dose/Day 2 g): 31.0 (11.5) hour | Transit Time through Digestive Tract (average) ([1]; Dose/Day 2 g): 22.2 (2.5) hour

OC[C@H]1O[C@@H](O[C@H]2[C@H](O)[C@@H](O)[C@@H](O[C@]3(CO)O[C@H](CO)[C@@H](O)[C@@H]3O)O[C@@H]2CO)[C@H](O)[C@@H](O)[C@H]1O [Lactosucrose]
Average Defecation Frequency ([1]; Dose/Day 1.5 g): 2.0 times/day | Average Fecal Weight ([1]; Dose/Day 1.5 g): 267 g/day | Maximum Transit Time through Digestive Tract (average) ([1]; Dose/Day 1.5 g): 31.3 (8.6) hour | Transit Time through Digestive Tract (average) ([1]; Dose/Day 1.5 g): 19.7 (3.5) hour

O=S(=O)([O-])[O-].[Mg+2] [Magnesium Sulfate]
Average Defecation Frequency ([1]; Dose/Day 4.5 g): 2.3 times/day | Average Fecal Weight ([1]; Dose/Day 4.5 g): 389 g/day | Maximum Transit Time through Digestive Tract (average) ([1]; Dose/Day 4.5 g): 35.8 (10.1) hour | Transit Time through Digestive Tract (average) ([1]; Dose/Day 4.5 g): 20.2 (2.4) hour | Cathartic effects ([1]; compared with magnesium oxide): stronger cathartic effects than magnesium oxide
